Experimental data as given in the supplement of paper PMC11061612.

Legend:
[1] = tested on: CAL-39 (Other Solid Carcinomas); test: Bliss excess, mean over the matrix (fraction); higher = more synergy
Summary of the method: (§1)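 Bliss excess equals the observed combination effect minus the expected value EA + EB − EA·EB, where EA and EB are the effects of each agent alone. Combination Emax is the second-highest inhibition within the matrix. Inhibition was scaled from CellTiter-Glo 2.0 luminescence, with 0 set by vehicle wells and 1 by blank wells, after 72 hours of two-drug dosing of cells plated in 1536-well plates.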

CS1 (Chondrosarcoma) = test: as above
Summary of the method: as §1

D-392MG (Glioblastoma) = test: as above
Summary of the method: as §1

[2] = tested on: DOK (Oral Cavity Carcinoma); test: as above
Summary of the method: as §1

[3] = tested on: HCT-116 (Colorectal Carcinoma); test: as above
Summary of the method: as §1

[4] = tested on: HLE (Hepatocellular Carcinoma); test: as above
Summary of the method: as §1

[5] = tested on: MEG-01 (Chronic Myelogenous Leukemia); test: as above
Summary of the method: as §1

[6] = tested on: P31-FUJ (Acute Myeloid Leukemia); test: as above
Summary of the method: as §1

[7] = tested on: SK-UT-1 (Other Solid Carcinomas); test: as above
Summary of the method: as §1

[8] = tested on: SNG-M (Endometrial Carcinoma); test: as above
Summary of the method: as §1

[9] = tested on: SW948 (Colorectal Carcinoma); test: as above
Summary of the method: as §1

[10] = tested on: TC-YIK (Other Solid Carcinomas); test: as above
Summary of the method: as §1

[11] = tested on: YT (Other Blood Carcinomas); test: as above
Summary of the method: as §1

[12] = tested on: CAL-39 (Other Solid Carcinomas); test: combination Emax (second highest fraction inhibited in the dose matrix, 72 h); higher = more inhibition; extreme values may be limits of the assay
Summary of the method: as §1

[13] = tested on: DOK (Oral Cavity Carcinoma); test: as above
Summary of the method: as §1

H4 (Low Grade Glioma) = test: as above
Summary of the method: as §1

HCC38 (Breast Carcinoma) = test: as above
Summary of the method: as §1

[14] = tested on: NOMO-1 (Acute Myeloid Leukemia); test: as above
Summary of the method: as §1

[15] = tested on: SW948 (Colorectal Carcinoma); test: as above
Summary of the method: as §1

[16] = tested on: TC-YIK (Other Solid Carcinomas); test: as above
Summary of the method: as §1

Compound	Bliss excess [1]	Bliss excess (CS1 (Chondrosarcoma))	Bliss excess (D-392MG (Glioblastoma))	Bliss excess [2]	Bliss excess [3]	Bliss excess [4]	Bliss excess [5]	Bliss excess [6]	Bliss excess [7]	Bliss excess [8]	Bliss excess [9]	Bliss excess [10]	Bliss excess [11]	combination Emax [12]	combination Emax [13]	combination Emax (H4 (Low Grade Glioma))	combination Emax (HCC38 (Breast Carcinoma))	combination Emax [14]	combination Emax [15]	combination Emax [16]
C[C@@H](Nc1cc(F)cc(F)c1)c1cc(C(=O)N(C)C)cc2c(=O)cc(N3CCOCC3)oc12 [AZD8186] + CC(=O)c1c(C)c2cnc(Nc3ccc(N4CCNCC4)cn3)nc2n(C2CCCC2)c1=O [Palbociclib] (first compound max 10 µM, 7x7, partner max 10 µM)	0.125	0.0326	-0.0827	0.0079	0.0488	0.0326	-0.0585	-0.0164	0.008	-0.0361	-0.0457	0.036	0.0407	0.772	0.538	0.697	0.209	0.568	0.433	0.741
C[C@@H](Oc1cc(-c2cnn(C3CCNCC3)c2)cnc1N)c1c(Cl)ccc(F)c1Cl [Crizotinib] + CC1=C(C(=CC=C1)Cl)NC(=O)C2=CN=C(S2)NC3=CC(=NC(=N3)C)N4CCN(CC4)CCO [Dasatinib] (first compound max 10 µM, 7x7, partner max 2 µM)	0.027	0.112	0.0503	-0.0008	0.0243	0.0195	0.0253	-0.0311	0.0539	0.0813	-0.0118	-0.0378	0.0714	0.987	1	0.963	0.348	0.528	0.793	0.796
C[C@@H](Oc1cc(-c2cnn(C3CCNCC3)c2)cnc1N)c1c(Cl)ccc(F)c1Cl [Crizotinib] + Cn1cnc2c(F)c(Nc3ccc(Br)cc3Cl)c(C(=O)NOCCO)cc21 [Selumetinib] (first compound max 10 µM, 7x7, partner max 10 µM)	0.0132	-0.0203	-0.0718	0.017	0.0323	0.0014	0.0179	-0.0781	0.0041	-0.0333	0.0137	-0.0663	-0.0587	0.866	0.933	0.787	0.0593	0.889	0.899	0.858
O=C(c1cc(Cc2n[nH]c(=O)c3ccccc23)ccc1F)N1CCN(C(=O)C2CC2)CC1 [Olaparib] + CC1(C)CCC(CN2CCN(c3ccc(C(=O)NS(=O)(=O)c4ccc(NCC5CCOCC5)c([N+](=O)[O-])c4)c(Oc4cnc5[nH]ccc5c4)c3)CC2)=C(c2ccc(Cl)cc2)C1 [Venetoclax] (first compound max 10 µM, 7x7, partner max 1 µM)	-0.0425	-0.0621	-0.0886	-0.0426	-0.0156	-0.0308	-0.0377	-0.0121	0.0047	-0.0347	-0.0528	-0.0304	0.0335	0.0578	0.108	0.267	0.179	0.383	0.122	0.403
O=C(c1cc(Cc2n[nH]c(=O)c3ccccc23)ccc1F)N1CCN(C(=O)C2CC2)CC1 [Olaparib] + CN(CC[C@H](CSC1=CC=CC=C1)NC2=C(C=C(C=C2)S(=O)(=O)NC(=O)C3=CC=C(C=C3)N4CCC(CC4)[C@H](C5=CC=CC=C5C6=CC=C(C=C6)Cl)O)S(=O)(=O)C(F)(F)F)CCO [AZD4320] (first compound max 10 µM, 7x7, partner max 1 µM)	-0.0242	-0.0342	-0.0317	-0.101	-0.0103	-0.0213	-0.009	-0.131	0.0299	-0.014	-0.0165	0.0047	-0.0505	0.116	0.191	0.389	0.482	0.348	0.303	0.984
O=C(c1cc(Cc2n[nH]c(=O)c3ccccc23)ccc1F)N1CCN(C(=O)C2CC2)CC1 [Olaparib] + COc1nnc2ccc(N3CCC(c4ccc(OCCN5CCN(C)C(=O)[C@H]5C)cc4)CC3)nn12 [AZD5153] (first compound max 10 µM, 7x7, partner max 1 µM)	-0.0634	-0.0718	-0.0759	-0.0404	-0.0206	-0.0392	-0.0579	-0.0621	-0.02	-0.0663	-0.0441	-0.0784	-0.107	0.518	0.445	0.658	0.412	0.939	0.428	0.85
